In US7964624B1, “Inhibitors of serine proteases” (priority 2005, dated 2011):
pKi: −log10 of the molar value.

Target: T1, HCV NS3 protease domain (Hepatitis C virus genotype 1b, UniProt Q9WMX2)
T1 construct: The first 181 amino acids of NS3 (residues 1027-1207 of the viral polyprotein); hexa-histidine (C); made in house; host or cells: E. coli BL21/DE3 pLysS
Assay: biochemical
Conditions: Enzyme Assay 1 (HCV NS3 Protease Domain Peptide Cleavage Assay) activity, apparent Ki class

T1 sequence (Q9WMX2 1027-1207, other chains not shown): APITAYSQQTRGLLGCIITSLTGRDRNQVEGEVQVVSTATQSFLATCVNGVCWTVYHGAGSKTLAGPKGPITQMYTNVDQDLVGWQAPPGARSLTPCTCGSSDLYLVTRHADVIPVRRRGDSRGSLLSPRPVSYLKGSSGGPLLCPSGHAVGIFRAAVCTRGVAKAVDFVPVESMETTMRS

Compound | pKi
CCC[C@H](NC(=O)[C@@H]1C[C@]2(CC(c3cc(F)cc(C(F)(F)F)c3)=NO2)CN1C(=O)O[C@H]1CCOC1)C(=O)C(=O)NC1CC1 [Compound 348] | < 6.30
CCC[C@H](NC(=O)[C@@H]1C[C@]2(CC(c3cccc(Cl)c3)=NO2)CN1C(=O)[C@@H](NC(=O)CC1CCCCC1)C(C)(C)C)C(=O)C(=O)Nc1cccc(C(C)=O)c1 [Compound 355] | < 6.30
CCC[C@H](NC(=O)[C@@H]1C[C@]2(CC(c3cccc(Cl)c3)=NO2)CN1C(=O)[C@@H](NC(=O)OCc1ccncc1)C(C)(C)C)C(=O)C(=O)NC1CC1 [Compound 357] | 6.30 to 7.00
C=C[C@@H]1C[C@]1(NC(=O)[C@@H]1C[C@]2(CC(c3cccc(Cl)c3)=NO2)CN1C(=O)[C@@H](NC(=O)CC1CCOCC1)C(C)(C)C)C(=O)NS(=O)(=O)C1CC1 [Compound 359] | 6.30 to 7.00
CCC[C@H](NC(=O)[C@@H]1C[C@]2(CC(c3cccc(Cl)c3)=NO2)CN1C(=O)[C@@H](NC(=O)CC1CCCCCC1)C(C)(C)C)C(=O)C(=O)NC1CC1 [Compound 360] | < 6.30
CCC[C@H](NC(=O)[C@@H]1C[C@]2(CC(C(=O)c3ccc(Cl)cc3)=NO2)CN1C(=O)[C@@H](NC(=O)O[C@H]1CCOC1)C(C)(C)C)C(=O)C(=O)NC1CC1 [Compound 364] | < 6.30
CCC[C@H](NC(=O)[C@@H]1C[C@]2(CC(c3ccccc3)=NO2)CN1C(=O)NCc1cc(OC)c(OC)c(OC)c1)C(=O)C(=O)NC1CC1 [Compound 367] | < 6.30
CCC[C@H](NC(=O)[C@@H]1C[C@]2(CC(c3ccc(OC)cc3OC)=NO2)CN1C(=O)OCC1c2ccccc2-c2ccccc21)C(=O)C(=O)NC1CC1 [Compound 371] | 6.30 to 7.00
CCC[C@H](NC(=O)[C@@H]1C[C@]2(CC(c3cccc(Cl)c3)=NO2)CN1C(=O)[C@@H](NC(=O)OCCCc1ccccn1)C(C)(C)C)C(=O)C(=O)NC1CC1 [Compound 373] | 6.30 to 7.00
CCC[C@H](NC(=O)[C@@H]1C[C@]2(CC(c3cccc(Cl)c3)=NO2)CN1C(=O)[C@@H](NC(=O)OC1CCOCC1)C(C)(C)C)C(=O)C(=O)NC1CC1 [Compound 374] | 6.30 to 7.00
CCC[C@H](NC(=O)[C@@H]1C[C@]2(CC(c3ccc4c(c3)OCO4)=NO2)CN1C(=O)[C@@H](NC(=O)CC1CCOCC1)C(C)(C)C)C(=O)C(N)=O [Compound 375] | < 6.30
CCC[C@H](NC(=O)[C@@H]1C[C@]2(CC(c3cccc(Cl)c3)=NO2)CN1C(=O)[C@@H](NC(=O)OCc1ccccn1)C(C)(C)C)C(=O)C(=O)NC1CC1 [Compound 378] | 6.30 to 7.00
CCC[C@H](NC(=O)[C@@H]1C[C@]2(CC(c3cccc(Cl)c3)=NO2)CN1C(=O)[C@@H](NC(=O)NC(C)C)C(C)(C)C)C(=O)C(=O)NC1CC1 [Compound 379] | > 7.00
CCC[C@H](NC(=O)[C@@H]1C[C@]2(CC(c3cccc(Cl)c3)=NO2)CN1C(=O)[C@@H](NC(=O)c1n[nH]c(=O)c2ccccc12)C(C)(C)C)C(=O)C(=O)NC1CC1 [Compound 381] | 6.30 to 7.00
CCC[C@H](NC(=O)[C@@H]1C[C@]2(CC(CC)=NO2)CN1C(=O)[C@@H](NC(=O)OCc1ccccc1)C(C)(C)C)C(=O)C(=O)NC1CC1 [Compound 383] | < 6.30
CCC[C@H](NC(=O)[C@@H]1C[C@]2(CC(c3ccc(C)cc3)=NO2)CN1C(=O)[C@@H](NC(=O)O[C@H]1CCOC1)C(C)(C)C)C(=O)C(=O)NC1CC1 [Compound 385] | < 6.30
CCC[C@H](NC(=O)[C@@H]1C[C@]2(CC(c3cccc(Cl)c3)=NO2)CN1C(=O)[C@@H](NC(=O)O[C@H]1CO[C@H]2OCC[C@H]21)C(C)(C)C)C(=O)C(=O)NC1CC1 [Compound 387] | 6.30 to 7.00
CCC[C@H](NC(=O)[C@@H]1C[C@]2(CC(c3cccc(Cl)c3)=NO2)CN1C(=O)[C@@H](NC(=O)OCCCc1cccnc1)C(C)(C)C)C(=O)C(=O)NC1CC1 [Compound 389] | < 6.30
CCC[C@H](NC(=O)[C@@H]1C[C@]2(CC(c3cccc(Cl)c3)=NO2)CN1C(=O)[C@@H](NC(=O)CC(C)(C)O)C(C)(C)C)C(=O)C(=O)NC1CC1 [Compound 392] | 6.30 to 7.00
CCC[C@H](NC(=O)[C@@H]1C[C@]2(CC(c3cccc(Cl)c3)=NO2)CN1C(=O)[C@@H](NC(=O)C(F)c1ccccc1)C(C)(C)C)C(=O)C(=O)NC1CC1 (stereo partly drawn) [Compound 393] | 6.30 to 7.00
CCCC1=NO[C@]2(C1)C[C@@H](C(=O)N[C@@H](CCC)C(=O)C(=O)NC1CC1)N(C(=O)[C@@H](NC(=O)[C@@H](NC(=O)c1cnccn1)C1CCCCC1)C(C)(C)C)C2 [Compound 400] | > 7.00
CCC[C@H](NC(=O)[C@@H]1C[C@]2(CC(c3cccc(Cl)c3)=NO2)CN1C(=O)[C@@H](NC(=O)CC1=C(c2cccs2)CCC1=O)C(C)(C)C)C(=O)C(=O)NC1CC1 [Compound 402] | 6.30 to 7.00
CCC[C@H](NC(=O)[C@@H]1C[C@]2(CC(c3ccc(C(C)C)cc3)=NO2)CN1C(=O)O[C@H]1CCOC1)C(=O)C(=O)NC1CC1 [Compound 405] | < 6.30
CCC[C@H](NC(=O)[C@@H]1C[C@]2(CC(c3cccc(Cl)c3)=NO2)CN1C(=O)[C@@H](NC(=O)OCC)C(C)(C)C)C(=O)C(=O)NC1CC1 [Compound 407] | 6.30 to 7.00

Compound | pKi
CCC[C@H](NC(=O)[C@@H]1C[C@]2(CC(c3ccc(F)c(C)c3)=NO2)CN1C(=O)O[C@H]1CCOC1)C(=O)C(=O)NC1CC1 [Compound 413] | < 6.30
CCC[C@H](NC(=O)[C@@H]1C[C@]2(CC(c3cc(F)c(F)c(F)c3)=NO2)CN1C(=O)O[C@H]1CCOC1)C(=O)C(=O)NC1CC1 [Compound 414] | < 6.30
CC(C)(C)[C@H](NC(=O)OCc1ccccc1)C(=O)N1C[C@@]2(CC(c3ccc4c(c3)OCO4)=NO2)C[C@H]1C(=O)NC(CC1CCC1)C(=O)C(N)=O (stereo partly drawn) [Compound 415] | 6.30 to 7.00
CCC[C@H](NC(=O)[C@@H]1C[C@]2(CC(c3ccc(F)cc3)=NO2)CN1C(=O)[C@@H](NC(=O)[C@@H](NC(=O)c1cnccn1)C(C)(C)C)C(C)(C)C)C(=O)C(=O)NC1CC1 [Compound 417] | > 7.00
CCC[C@H](NC(=O)[C@@H]1C[C@]2(CC(c3cccc(Cl)c3)=NO2)CN1C(=O)C1CC1c1ccccc1)C(=O)C(=O)NC1CC1 (stereo partly drawn) [Compound 421] | < 6.30
CCC[C@H](NC(=O)[C@@H]1C[C@]2(CC(c3ccc4c(c3)OCO4)=NO2)CN1C(=O)[C@@H](NC(=O)O[C@H]1CCOC1)C(C)(C)C)C(=O)C(N)=O [Compound 422] | 6.30 to 7.00
CCC[C@H](NC(=O)[C@@H]1C[C@@]2(CC(c3ccc(C)c(F)c3)=NO2)CN1C(=O)[C@@H](NC(=O)O[C@H]1CCOC1)C(C)(C)C)C(=O)C(=O)NC1CC1 [Compound 423] | < 6.30
COc1ccc(C2=NO[C@@]3(C2)C[C@@H](C(=O)NC(CC2CCC2)C(=O)C(N)=O)N(C(=O)[C@@H](NC(=O)OCc2ccccc2)C(C)(C)C)C3)c(OC)c1 (stereo partly drawn) [Compound 424] | 6.30 to 7.00
CCC[C@H](NC(=O)[C@@H]1C[C@]2(CC(c3cccc(-c4ccncc4)c3)=NO2)CN1C(=O)[C@@H](NC(=O)O[C@H]1CCOC1)C(C)(C)C)C(=O)C(=O)NC1CC1 [Compound 425] | < 6.30
CCC[C@H](NC(=O)[C@@H]1C[C@]2(CC(c3cccc(Cl)c3)=NO2)CN1C(=O)[C@H](Cc1ccccc1)NC(=O)OCC)C(=O)C(=O)NC1CC1 [Compound 427] | < 6.30
CCC[C@H](NC(=O)[C@@H]1C[C@@]2(CC(c3ccccc3)=NO2)CN1C(=O)[C@@H](NC(=O)[C@@H](NC(=O)c1cnccn1)C1CCCCC1)C(C)(C)C)C(=O)C(=O)NC1CC1 [Compound 428] | 6.30 to 7.00
CCC[C@H](NC(=O)[C@@H]1C[C@]2(CC(c3cccc(Cl)c3)=NO2)CN1C(=O)[C@@H](NC(=O)Cc1ccccc1C)C(C)(C)C)C(=O)C(=O)NC1CC1 [Compound 431] | 6.30 to 7.00
CCC[C@H](NC(=O)[C@@H]1C[C@]2(CC(c3cccc(Cl)c3)=NO2)CN1C(=O)[C@@H](NC(=O)N(C)CC)C(C)(C)C)C(=O)C(=O)NC1CC1 [Compound 432] | < 6.30
CCC[C@H](NC(=O)[C@@H]1C[C@]2(CC(c3cccc(OC)c3OC)=NO2)CN1C(=O)[C@@H](NC(=O)OCc1ccccc1)C(C)(C)C)C(=O)C(=O)NC1CC1 [Compound 434] | 6.30 to 7.00
CCC[C@H](NC(=O)[C@@H]1C[C@]2(CC(c3cccc(Cl)c3)=NO2)CN1C(=O)[C@@H](NC(=O)c1c(OC)ccc2ccccc12)C(C)(C)C)C(=O)C(=O)NC1CC1 [Compound 435] | 6.30 to 7.00
CCC[C@H](NC(=O)[C@@H]1C[C@]2(CC(c3ccc(Cl)c(C)c3)=NO2)CN1C(=O)[C@@H](NC(=O)CC1CCCCC1)C(C)(C)C)C(=O)C(=O)NC1CC1 [Compound 436] | 6.30 to 7.00
CCC[C@H](NC(=O)[C@@H]1C[C@]2(CC(c3cccc(C)c3)=NO2)CN1C(=O)[C@@H](NC(=O)O[C@H]1CCOC1)C(C)(C)C)C(=O)C(=O)NC1CC1 [Compound 444] | 6.30 to 7.00
CCC[C@H](NC(=O)[C@@H]1C[C@]2(CC(c3ccc4noc(-c5ccc(Cl)cc5)c4c3)=NO2)CN1C(=O)[C@@H](NC(=O)O[C@H]1CCOC1)C(C)(C)C)C(=O)C(=O)NC1CC1 [Compound 448] | 6.30 to 7.00
CCC[C@H](NC(=O)[C@@H]1C[C@]2(CC(c3cccc(Cl)c3)=NO2)CN1C(=O)[C@@H](NC(=O)Cc1cc2c(cc1Cl)OCO2)C(C)(C)C)C(=O)C(=O)NC1CC1 [Compound 449] | 6.30 to 7.00
CCC[C@H](NC(=O)[C@@H]1C[C@]2(CC(c3ccc4c(c3)OCO4)=NO2)CN1C(=O)[C@@H](NC(=O)[C@@H](NC(=O)c1cnccn1)C(C)(C)C)C(C)(C)C)C(=O)C(=O)NC1CC1 [Compound 450] | > 7.00
CCC[C@H](NC(=O)[C@@H]1C[C@]2(CC(c3ccc(F)c(C(F)(F)F)c3)=NO2)CN1C(=O)O[C@H]1CCOC1)C(=O)C(=O)NC1CC1 [Compound 451] | < 6.30
C#CCCC(NC(=O)[C@@H]1C[C@]2(CC(c3cccc(Cl)c3)=NO2)CN1C(=O)[C@@H](NC(=O)CC1CCCCC1)C(C)(C)C)C(=O)C(=O)NC1CC1 (stereo partly drawn) [Compound 453] | 6.30 to 7.00
CCC[C@H](NC(=O)[C@@H]1C[C@]2(CC(c3cccc(Cl)c3)=NO2)CN1C(=O)[C@@H](NC(=O)CSc1cccc2cccnc12)C(C)(C)C)C(=O)C(=O)NC1CC1 [Compound 454] | 6.30 to 7.00
CCC[C@H](NC(=O)[C@@H]1C[C@@]2(CC(c3cc(F)c(F)c(F)c3)=NO2)CN1C(=O)[C@@H](NC(=O)O[C@H]1CCOC1)C(C)(C)C)C(=O)C(=O)NC1CC1 [Compound 455] | < 6.30
